According to ChEMBL document CHEMBL1201862, “PubChem BioAssay data set” (2004):
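Protocol summary: plate cells (96-well), add compound at 5 concentrations, incubate 48 h, interpolate endpoints linearly. GI50 = concentration required for 50% inhibition of growth.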 Calls of active or inactive are those of the source. No stated cut-off is given here; in the data, active = GI50 up to about 1.1 µM and inactive = higher.

Columns and labels:
Test in all cases: NCI-60 cell line screen, 48 h
UACC-62 = test system: UACC-62
DMS-114 = test system: DMS-114
RXF 631 = test system: RXF 631
SN12C = test system: SN12C
UACC-257 = test system: UACC-257
786-0 = test system: 786-0
SNB-75 = test system: SNB-75
EKVX = test system: EKVX
SF-268 = test system: SF-268
LOX IMVI = test system: LOX IMVI
CAKI-1 = test system: CAKI-1
LXFL 529 = test system: LXFL 529
U-251 = test system: U-251
SF-539 = test system: SF-539
IGROV-1 = test system: IGROV-1
HOP-18 = test system: HOP-18
Malme-3M = test system: Malme-3M
KM12 = test system: KM12
TK-10 = test system: TK-10
SW-620 = test system: SW-620
DMS-273 = test system: DMS-273
RXF 393 = test system: RXF 393
KM-20L2 = test system: KM-20L2
HCC 2998 = test system: HCC 2998
HCT-116 = test system: HCT-116
HT-29 = test system: HT-29
HOP-62 = test system: HOP-62
ACHN = test system: ACHN
M19-MEL = test system: M19-MEL
OVCAR-4 = test system: OVCAR-4
SF-295 = test system: SF-295
A549 = test system: A549
NCI-H460 = test system: NCI-H460
SK-OV-3 = test system: SK-OV-3
COLO 205 = test system: COLO 205
OVCAR-8 = test system: OVCAR-8
NCI-H23 = test system: NCI-H23
SK-MEL-2 = test system: SK-MEL-2
DLD-1 = test system: DLD-1
HCT-15 = test system: HCT-15
UO-31 = test system: UO-31
A498 = test system: A498
XF498 = test system: XF498
M14 = test system: M14
OVCAR-5 = test system: OVCAR-5
SK-MEL-28 = test system: SK-MEL-28
OVCAR-3 = test system: OVCAR-3
SK-MEL-5 = test system: SK-MEL-5
SNB-19 = test system: SNB-19
SNB-78 = test system: SNB-78
SR = test system: SR
K562 = test system: K562
MOLT-4 = test system: MOLT-4
CCRF-CEM = test system: CCRF-CEM
NCI-H522 = test system: NCI-H522
RPMI-8226 = test system: RPMI-8226
HL-60 = test system: HL-60
NCI-H226 = test system: NCI-H226

Measured: GI50

CN1C(c2ccccc2)CS(=O)(=O)CS1(=O)=O (stereo not drawn)
> 100 µM: HCT-15
inactive: UACC-62 > 100 µM | DMS-114 > 100 µM | RXF 631 > 100 µM | SN12C > 100 µM | UACC-257 > 100 µM | 786-0 > 100 µM | SNB-75 > 100 µM | EKVX > 100 µM | SF-268 > 100 µM | LOX IMVI > 100 µM | CAKI-1 > 100 µM | LXFL 529 > 100 µM | U-251 > 100 µM | SF-539 > 100 µM | IGROV-1 > 100 µM | HOP-18 > 100 µM | Malme-3M > 100 µM | KM12 > 100 µM | TK-10 > 100 µM | SW-620 > 100 µM | DMS-273 > 100 µM | RXF 393 > 100 µM | KM-20L2 > 100 µM | HCC 2998 > 100 µM | HCT-116 > 100 µM | HT-29 > 100 µM | HOP-62 > 100 µM | ACHN > 100 µM | M19-MEL > 100 µM | OVCAR-4 > 100 µM | SF-295 > 100 µM | A549 > 100 µM | NCI-H460 > 100 µM | SK-OV-3 > 100 µM | COLO 205 > 100 µM | OVCAR-8 > 100 µM | NCI-H23 > 100 µM | SK-MEL-2 > 100 µM | DLD-1 > 100 µM | UO-31 > 100 µM | A498 > 100 µM | XF498 > 100 µM | M14 > 100 µM | OVCAR-5 > 100 µM | SK-MEL-28 > 100 µM | OVCAR-3 30.1 µM | SK-MEL-5 > 100 µM | SNB-19 > 100 µM | SNB-78 > 100 µM

COC(=O)C(Cc1nc2ccc(Cl)cc2nc1O)C(=O)C(=O)Nc1cc(C)ccc1C (stereo not drawn)
> 100 µM: HCT-15
inactive: UACC-62 > 100 µM | DMS-114 > 100 µM | SR > 100 µM | RXF 631 > 100 µM | SN12C > 100 µM | UACC-257 > 100 µM | 786-0 > 100 µM | SNB-75 > 100 µM | EKVX 8.2 µM | SF-268 > 100 µM | LOX IMVI > 100 µM | CAKI-1 > 100 µM | LXFL 529 > 100 µM | U-251 > 100 µM | SF-539 > 100 µM | IGROV-1 > 100 µM | K562 > 100 µM | HOP-18 > 100 µM | Malme-3M > 100 µM | KM12 > 100 µM | TK-10 > 100 µM | SW-620 > 100 µM | MOLT-4 > 100 µM | DMS-273 > 100 µM | RXF 393 > 100 µM | KM-20L2 > 100 µM | HCC 2998 > 100 µM | HCT-116 > 100 µM | HT-29 > 100 µM | HOP-62 > 100 µM | ACHN > 100 µM | M19-MEL > 100 µM | CCRF-CEM > 100 µM | OVCAR-4 > 100 µM | SF-295 > 100 µM | NCI-H522 > 100 µM | A549 > 100 µM | NCI-H460 > 100 µM | SK-OV-3 > 100 µM | COLO 205 > 100 µM | OVCAR-8 > 100 µM | RPMI-8226 > 100 µM | NCI-H23 > 100 µM | SK-MEL-2 > 100 µM | HL-60 > 100 µM | DLD-1 > 100 µM | UO-31 > 100 µM | A498 > 100 µM | XF498 > 100 µM | M14 > 100 µM | OVCAR-5 > 100 µM | SK-MEL-28 > 100 µM | OVCAR-3 > 100 µM | SK-MEL-5 > 100 µM | NCI-H226 > 100 µM | SNB-19 > 100 µM | SNB-78 > 100 µM
